In patent US9062041B2 (Bayer Intellectual Property GmbH, priority 2011, dated 2015):
Like-named read-outs stand apart in the source and are kept apart here.

Legend:
[1] = biological target: EP4 subtype of the human PGE2 receptor (Homo sapiens, UniProt P35408); assay: cAMP antagonism test on the human EP4 receptor (HTRF cAMP detection); format: cell-based; conditions: selectivity towards hEP4, IC50 measured by cAMP antagonism test
Procedure, shortened: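 Competitive HTRF cAMP read-out (cAMP-d2 vs Eu-cryptate anti-cAMP antibody, 665/620 nm ratio) on lysed human EP4 cells. Compound (0.8 nM–16.5 μM) applied 20 min at RT before 60 min PGE2 challenge (3× solution 0.3 nM, IBMX present); 20 min lysis precedes reading.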

human PGD receptor = biological target: T1, human PGD receptor (Homo sapiens, UniProt Q13258); assay: cAMP antagonism test on the human prostaglandin D receptor (HTRF cAMP detection); format: cell-based; conditions: selectivity towards hDP, IC50 measured by cAMP antagonism test
T1 sequence (Q13258 1-359): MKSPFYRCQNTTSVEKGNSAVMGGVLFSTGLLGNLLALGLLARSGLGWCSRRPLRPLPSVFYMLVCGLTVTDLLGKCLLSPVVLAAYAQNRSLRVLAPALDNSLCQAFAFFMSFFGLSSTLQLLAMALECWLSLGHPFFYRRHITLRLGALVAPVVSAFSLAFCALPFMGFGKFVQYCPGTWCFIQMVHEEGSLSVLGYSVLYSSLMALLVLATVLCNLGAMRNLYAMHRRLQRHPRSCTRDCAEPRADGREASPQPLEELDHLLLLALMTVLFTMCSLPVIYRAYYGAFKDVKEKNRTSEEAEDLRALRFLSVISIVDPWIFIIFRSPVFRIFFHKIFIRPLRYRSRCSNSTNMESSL
Procedure, shortened: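 HTRF competition read-out (665/620 nm ratio ×10000), where higher FRET means less cAMP, i.e. antagonism. Compounds (0.8 nM–16.5 μM) were preincubated 20 min at RT with cells and cAMP-d2, PGD2 (3× solution, 6 nM) in IBMX-containing PBS added for 30 min at RT, then cells lysed 20 min.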

[2] = Pharmacokinetic parameters after intravenous administration; format: in vivo, rat; conditions: for half-life: plasma
Protocol: 5. Determination of the Pharmacokinetic Parameters after Intravenous Administration
5.1. Intravenous Administration:
For this, the substances were administered in dissolved form, compatible solubilizers such as PEG400 and/or ethanol being used in tolerable quantity. The substances were administered at a dosage of 0.1-1 mg/kg. The administration was effected in the female rat as a bolus injection. Here, at various times after bolus injection ca. 100-150 μl blood samples were withdrawn from the jugular vein via a catheter. The blood samples were treated with lithium-heparin as anticoagulant and stored refrigerated until further work-up. After centrifugation of the samples for 15 mins at 3000 rpm, an aliquot of 100 μl was withdrawn from the supernatant (plasma) and precipitated by addition of 400 μl of cold acetonitrile or methanol (absolute). The precipitated samples were frozen overnight at −20° C., then centrifuged once again for 15 mins at 3000 rpm, before 150 μl of the clear supernatant was withdrawn for the concentration determination. The analysis was performed with an Agilent 1200 HPLC system with attached LCMS/MS detection.
5.2 Calculation of the PK Parameters
The calculation was performed by means of the PK calculation software WinNonLin®, where t1/2 means half-life within a specified interval (here: terminal t1/2, in hrs).

[3] = after intravenous administration in the female rat, read-out: Terminal half-life t1/2 (converted)

Chain of EP4 subtype of the human PGE2 receptor (P35408 whole entry): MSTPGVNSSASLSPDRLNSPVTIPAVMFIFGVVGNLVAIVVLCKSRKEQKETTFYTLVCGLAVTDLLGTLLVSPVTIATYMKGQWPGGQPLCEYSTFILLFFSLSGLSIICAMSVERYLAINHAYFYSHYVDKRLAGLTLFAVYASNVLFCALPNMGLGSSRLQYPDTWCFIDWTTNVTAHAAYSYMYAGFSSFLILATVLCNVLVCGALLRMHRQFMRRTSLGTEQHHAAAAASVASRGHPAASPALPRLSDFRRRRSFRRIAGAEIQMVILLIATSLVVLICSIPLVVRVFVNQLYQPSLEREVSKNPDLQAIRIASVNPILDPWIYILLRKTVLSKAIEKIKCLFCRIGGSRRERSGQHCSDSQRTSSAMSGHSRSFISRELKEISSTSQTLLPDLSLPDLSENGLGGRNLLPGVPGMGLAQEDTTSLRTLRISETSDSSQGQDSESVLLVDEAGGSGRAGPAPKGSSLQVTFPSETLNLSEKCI

Row | Selectivity hEP2/hEP4 [1] | Selectivity hEP2/hDP (human PGD receptor) | Terminal half-life t1/2 ([2]; after intravenous administration in the female rat) | half-life ([2]; intravenous administration, female rat, read-out: terminal half-life t1/2 (converted)) | half-life [2, 3] | SMILES
1 | xxx (xxx > 100) | xxx (xxx > 100) | 2.5 h | 2.5 h | – | COCCNC(=O)c1ccc2nn(CC3CCN(C(=O)c4ccc(Oc5ccc(C(F)(F)F)cc5)cc4)CC3)cc2c1C [Example 17, N-(2-methoxyethyl)-4-methyl-2-[(1-{4-[4-(trifluoromethyl)-phenoxy]benzoyl}-piperidin-4-yl)-methyl]-2H-indazol-5-carboxamide]
2 | xxx (xxx > 100) | xxx (xxx > 100) | – | – | 3.2 h | COCCNC(=O)c1ccc2nn(CC3CCN(C(=O)c4ccc(-c5ccc(F)cc5)cc4F)CC3)cc2c1C [Example 42, 2-({1-[(3,4′-difluoro-biphenyl-4-yl)-carbonyl]piperidin-4-yl}methyl)-N-(2-methoxyethyl)-4-methyl-2H-indazol-5-carboxamide]
3 | xxx (xxx > 100) | xxx (xxx > 100) | – | – | 2 h | COCCNC(=O)c1ccc2nn(CC3CN(C(=O)c4ccc(Cl)cc4)C3)cc2c1C [Example 117, 2-{[1-(4-chlorobenzoyl)azetidin-3-yl]methyl}-N-(2-methoxyethyl)-4-methyl-2H-indazol-5-carboxamide]
4 | xxx (xxx > 100) | xxx (xxx > 100) | – | – | 5.8 h | Cc1c(C(=O)NCC(F)(F)F)ccc2nn(CC3CCN(C(=O)c4ccc(Oc5ccc(F)cc5)cc4)CC3)cc12 [Example 283, 2-({1-[4-(4-fluorophenoxy)benzoyl]piperidin-4-yl}methyl)-4-methyl-N-(2,2,2-trifluoroethyl)-2H-indazol-5-carboxamide]
